Measurements from patent publication US8354498B2, “CD4 mimic peptides and their uses” (Commissariat a l'Energie Atomique, priority 2006, dated 2013).
Where two headings read alike, the source gives them in different places.

Tests used:
HIV-1 NL4.3(X4) = type: cell-based
Protocol: The acute infection assays in primary cells were performed as described by Schols and coworkers (Balzarini et al., J. Biol. Chem., 2005, 280, 41005-41014). Briefly, PBMC from healthy donors were isolated by density gradient centrifugation and stimulated by phytohemagglutinin (PHA; SIGMA) in RPMI 1640 medium supplemented with 10% foetal calf serum (FCS; BIOCHROM). PBMC were infected by exposing cells (0.5×10^6/well; 48-well plate) to the viral stocks added at a final dose of 250 pg of p24/mL in the presence or the absence of the inhibitors. Cell supernatant was collected at day 12, and HIV-1 core Ag in the culture supernatant was analysed by a p24 Ag enzyme-linked immunosorbent assay kit (PERKIN ELMER).
(§1) The experimental procedures are as described in example 1.

HIV-1 NL4.3 (X4) = type: cell-based
Protocol: The antiviral activity of the molecules in MT-4 cells was determined using a tetrazolium-based colorimetric assay (Hase et al., Biochem. Pharmacol., 2005, 70, 752-761). Briefly, five-fold dilutions of the test compounds in 100 μL of medium were added to duplicate wells of 96-well flat bottom plates (IWAKI). Then 6×10^4 MT-4 cells were added in 50 μL of medium, and finally 50 μL of diluted HIV-1 stocks was added to each well. Cytopathic effect induced by the virus was monitored by daily microscopic evaluation of the virus-infected cell cultures. At day 4-5 after infection, the cell viability was assessed via the in situ reduction of the tetrazolium compound MTS, using the CellTiter 96® AQueous one solution cell proliferation assay (PROMEGA). The absorbance was then measured at 490 nm with a 96-well plate reader and compared with four cell control replicates (cells without virus and drugs) and four virus control wells (virus-infected cells without drugs). The IC50 was calculated for each compound from the dose-response curve.
as §1

HIV-1 6393(R5) = assay: Acute infection assay in PM1 cells; type: cell-based; conditions: day 5, read-out: Antiviral activity IC50
Protocol: (§2) For the acute infection assay in PM1 cell line (Lusso et al., J. virol., 1995, 69, 3712-3720), an immortalized CD4^+CCR5^+CXCR4^+ T-cell clone susceptible of a wide variety of HIV-1 strains, the cells were seeded at 2.5×10^4 cells/well into flat-bottom 96-well plates in 200 μL of complete RPMI medium. Cells were then exposed to the viral stocks (˜50 TCID50/well) pre-treated or not with serial dilutions of inhibitors for 30 min. After overnight incubation at 37° C., the cells were washed twice and recultured in complete RPMI medium supplemented with the appropriate inhibitors. After 3, 5 or 7 days, the culture supernatant was removed […] p24 antigen testing and replaced with fresh medium containing the appropriate inhibitors. The extracellular p24 concentrations were measured by capture ELISA, using a sandwich of specific antibodies (AALTO BIO REAGENTS).
as §1

HIV-1 BaL(R5) = assay: Acute infection assay in PM1 cells; type: cell-based; conditions: day 5, read-out: Antiviral activity IC50
Protocol: as §2, §1

HIV-1 714(R5) = assay: Acute infection assay in PM1 cells; type: cell-based; conditions: day 5, read-out: Antiviral activity IC50
Protocol: as §2, §1

[1] = system: gp120 isolates SF2, SF162, Bal, IIIB, YU2; assay: Direct binding by fluorescence anisotropy, comparison over all isolates; parameters: species or system HIV-1; conditions: depending on gp120 isolates
Protocol: Direct binding assays of fluorescent peptides were performed in triplicates by adding 10 μL of 0.5 nM Alexa-labeled mini-proteins and 10 μL of serial dilutions (two-thirds dilutions in 16 wells, starting at 200 nM) of gp120 SF2, SF162, BaL, IIIB and YU2. Collected data were fitted to the following equation using a non-linear regression program (Prism, GraphPad software Inc.):
The biphenylalanine in position 23 led to a 3 fold gain, consistent with the previously observed difference between CD4M33 and its [Phe^23]M33 mutant (Huang et al., Structure, 2005, 13, 755-768).

gp120SF162 = gp120SF162 (Human immunodeficiency virus type 1 group M subtype B, UniProt P19550); conditions: injected at 125 nM; curves normalized to CD4M48
Protocol: 100 μL of monomer, dimers and tetramers were passed over the surface at 20 μL/min after which dissociation of bound inhibitors was monitored for 15 min.
All experiments were conducted at 25° C. with 20 μL/min flow rate in HBS (50 mM HEPES-buffered saline, 3 mM EDTA, 0.05% Biacore surfactant P20, pH 7.4) with a BIACORE 3000 instrument (BIACORE AB).
For binding of multimers to gp120, gp120SF162 was immobilized on a CM5 sensor chip at 9000 RU by the amine coupling kit provided by the manufacturer.

[2] = biological target: T1, gp120SF162 binding to CCR5+-CHO cells (Human immunodeficiency virus type 1 group M subtype B, UniProt P19550); assay: FACS analysis of gp120 binding to CCR5+-CHO cells in presence of CD4 mimics; type: cell-based, HIV-1; conditions: gp120SF162 pre-incubated with mini-protein
T1 construct: R5-tropic SF162 and Dual-tropic SF2 recombinant gp120s were produced in mammalian cells (CHO); made in house; host or cells: gp120: CHO; CCR5: transfected CHO-K1 cells
Excerpt: FIG. 7 illustrates the FACS analysis of the binding of recombinant envelope gp120 to CCR5^+-CHO cells in absence or in presence of various CD4-mimics, in comparison with soluble CD4.
FIG. 13 illustrates the FACS analysis of the binding of recombinant envelope gp120 to CCR5^+-CHO cells in absence or in presence of various CD4-mimics in comparison with soluble CD4.
FIG. 19 illustrates the FACS analysis of the binding of gp120SF162 to CCR5^+ CHO cells in absence or in presence of CD4M48 monomer or hetero-bivalent CD4M48−heparin. The ability of gp120 in complex with CD4M48 alone, CD4M48 covalently bound to heparin (noted M48−heparin), CD4M48 in presence of free LMW heparin (1:1) (noted M48+heparin) to bind to cellular co-receptor CCR5 was investigated.
Adherent CHO-K1 cells expressing CCR5 (Samson et al., Biochemistry, 1996, 35, 3362-3367; Blanpain et al., Blood, 2000, 96, 1638-1645) were used to analyze gp120SF162 conformational change in complex with different mini-proteins, by FACS (BECKTON DICKINSON). Briefly, 0.03 μg of gp120SF162 were pre-incubated overnight at 4° C. in absence or in presence of 10 nM CD4 or 10 nM mini-proteins and further added to 2×10^5 cells in HAM F12 supplemented with 10% SVF, 1% penicillin/streptomycin. […] After final wash, cells were analyzed for envelope binding by FACS.

[3] = system: gp120 (SF162, YU2, SF2, LAI, HXB2) binding to CD4i antibody 48d; assay: SPR analysis of binding of gp120 complexes to immobilized CD4i Ab 48d; parameters: species or system HIV-1; conditions: 50 nM gp120 premixed with 3 eq.
Protocol: 120 μL of 50 nM gp120 preincubated with 3 eq. […] (A) gp120SF162, (B) gp120LAI. (C) gp120YU2.
The different gp120 (SF162, YU2, LAI, HXB2, SF2) were premixed at a final concentration of 50 nM with 3 eq. CD4M48, 3 eq. CD4M48 in presence of 3 eq. LMW heparin or 3 eq. covalent CD4M48−heparin for 60 min before injection at 20 μL/min. All sensorgrams were corrected by substracting the signal from reference flow cell.

gp120 = system: gp120
Protocol: Fluorescence anisotropy was determined after 40 min equilibration time at room temperature, using 485 nm excitation and 530 nm emission filters and an additional 505 nm dichroic filter. All experiments were performed in duplicate.
Fluorescence anisotropy measurements were based on the assessment of the rotational motions of species. Whereas the CD4-mimic tumbles very fast in solution randomizing excited molecules, once it binds to gp120 envelopes, the excited mini-protein stays aligned during the process of emission and as a result, emitted light is polarized.

[4] = MT-4 cells, NL4.3 (X4), day 5, read-out: Antiviral activity IC50

CD4M48T50: CD4M48 tetramer on polylysine construct with 50 Å PEGylated linkers
IC50 (HIV-1 NL4.3(X4); PBMC, day 12, read-out: Antiviral activity IC50): < 0.026 µM
IC50 (HIV-1 NL4.3 (X4); [4]): 0.031 µM
IC50 (HIV-1 6393(R5)): 0.35 µM
IC50 (HIV-1 BaL(R5)): 0.31 µM
IC50 (HIV-1 714(R5)): 0.68 µM

CD4M48-F1: CD4M48 labeled with Alexa-488 probe at Lys11 (XNLHFCQLRCKSLGLLGRCAXTFCACV; not fully specified; D-residues)
Improvement of affinity (Kd) compared to CD4M33 [1]: 1.1 to 6.1 fold

CD4M48T100: CD4M48 tetramer on polylysine construct with 100 Å PEGylated linkers (XNLHFCQLRCKSLGLLGRCAXTFCACV; not fully specified; D-residues)
IC50 (HIV-1 NL4.3 (X4); [4]): 0.022 µM
IC50 (HIV-1 6393(R5)): 0.055 µM
IC50 (HIV-1 BaL(R5)): 0.045 µM
IC50 (HIV-1 714(R5)): 0.36 µM
Dissociation from immobilized gp120 (off-rate) compared to monomer CD4M48 (gp120SF162): slowed-down dissociation phase

Enfuvirtide
IC50 (HIV-1 NL4.3(X4)): 0.013 µM
IC50 (HIV-1 NL4.3 (X4); NL4.3(X4)): 0.011 µM

CD4M47-F1: CD4M47 labeled with Alexa-488 probe at Lys11
Improvement of affinity (Kd) compared to CD4M33 [1]: 5.2- to 12.3 fold

CD4M48-hep: hetero-bivalent inhibitor: CD4M48-hydrazino (Lys-11) covalently ligated to heparin mono-aldehyde (XNLHFCQLRCKSLGLLGRCAXTFCACV; not fully specified; D-residues)
Binding of gp120 to CCR5+-CHO cells induced by the mimic (conformational change of gp120) [2]: prevents the binding of the complex to CCR5+ cells
Recognition of the gp120 complex by CD4i Ab 48d [3]: inhibit completely the recognition of the complex by CD4i-Ab 48d
Inhibition of CD4M33-F1 binding to gp120 (competitive polarization) (gp120): nanomolar range
